Read-outs that look alike come from different tables or passages of the source.
How the values were obtained:
Format in all cases: in vivo
[1] = system: barley (winter barley, Hordeum vulgare); assay: Test C postemergence: barley
Procedure, shortened: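 Visual 0–100 injury score vs untreated controls (0 none, 100 complete control), taken 13–15 d after treatment. Postemergence spray on potted plants, 2–18 cm, 1–4 leaves; greenhouse.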

[2] = system: field violet (Viola arvensis); assay: Test D pre-/postemergence: field violet
Procedure, shortened: (§1)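 Pre- and postemergence herbicide screen. Soil for pre: silt loam; post medium: peat moss, vermiculite, wetting agent, starter nutrients. Plant stage at post: 1- to 4-leaf. Readout: visual % control, 14–21 days.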

[3] = system: bluegrass (annual bluegrass, Poa annua); assay: Test D pre-/postemergence: bluegrass
Procedure, shortened: as §1

[4] = system: Russian thistle (Salsola iberica); assay: Test D pre-/postemergence: Russian thistle
Procedure, shortened: as §1

[5] = system: goosegrass (Eleusine indica); assay: Test C pre-/postemergence: goosegrass
Procedure, shortened: (§2)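 Preemergence on seeds in loam/sand, postemergence on 2–18 cm (1–4-leaf) plants in peat-based medium; compounds in non-phytotoxic solvent with surfactant. After 13–15 days in greenhouse, visual rating versus controls, 0 (no effect) to 100 (complete control).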

[6] = system: foxtail, green (green foxtail, Setaria viridis); assay: Test C pre-/postemergence: foxtail, green
Procedure, shortened: as §2

[7] = system: wheat, winter (winter wheat, Triticum aestivum); assay: Test D pre-/postemergence: wheat, winter
Procedure, shortened: as §1

[8] = system: sedge, umbrella (small-flower umbrella sedge, Cyperus difformis); assay: Test C flooded paddy test: sedge, umbrella; details: Cyperus difformis, scale 0 to 100 (0 no effect, 100 complete control), read-out: Plant response rating, Sedge, Umbrella; for pest or weed control at 62 g/ha: 62 g ai/ha; for pest or weed control at 125 g/ha: 125 g ai/ha; for pest or weed control at 250 g/ha: 250 g ai/ha; for pest or weed control at 31 g/ha: 31 g ai/ha
Procedure, shortened: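 Visual ratings from 0 (no effect) to 100 (complete control), made against untreated controls 13 to 15 days after treatment, express plant response. Compounds went directly into paddy water over 2-leaf stage plants in pots flooded to 3 cm.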

[9] = 62 g ai/ha, scale 0 to 100 (0 no effect, 100 complete control)
[10] = 125 g ai/ha, scale 0 to 100, 0 no effect, 100 complete control
[11] = Postemergence, 31 g ai/ha, scale 0 to 100 (0 no effect, 100 complete control)
[12] = Postemergence, 62 g ai/ha, scale 0 to 100 (0 no effect, 100 complete control)
[13] = Postemergence, 125 g ai/ha, scale 0 to 100, 0 no effect, 100 complete control
[14] = Postemergence, 250 g ai/ha, scale 0 to 100 (0 no effect, 100 complete control)
[15] = Postemergence, 16 g ai/ha, scale 0 to 100
[16] = Preemergence, 16 g ai/ha, scale 0 to 100 (0 no effect, 100 complete control)
[17] = Preemergence, 31 g ai/ha, scale 0 to 100 (0 no effect, 100 complete control)
[18] = Preemergence, 62 g ai/ha, scale 0 to 100
[19] = Preemergence, 125 g ai/ha, scale 0 to 100
[20] = Preemergence, 250 g ai/ha, scale 0 to 100
[21] = Postemergence, 250 g ai/ha, scale 0 to 100
[22] = Preemergence, 31 g ai/ha, scale of 0 to 100, 0 is no effect, 100 is complete control
[23] = Preemergence, 62 g ai/ha, scale of 0 to 100, 0 is no effect, 100 is complete control
[24] = Preemergence, 125 g ai/ha, scale 0 to 100, 0 no effect, 100 complete control
[25] = Preemergence, 250 g ai/ha, scale 0 to 100, 0 no effect, 100 complete control
[26] = Flood (flooded paddy test), visual rating after 13 to 15 days

Compound: Cc1nn(-c2ccc(F)cc2)nc1Cc1ccnc(C(F)(F)F)c1 [Compound 16, 4-[[2-(4-fluorophenyl)-5-methyl-2H-1,2,3-triazol-4-yl]methyl]-2-(trifluoromethyl)pyridine]
- Plant response rating, Barley [1, 9]: 35
- Plant response rating, Barley [1, 10]: 45
- Plant response rating, Barley ([1]; 250 g ai/ha, scale 0 to 100): 45
- Plant response rating: Field Violet [2, 11]: 20
- Plant response rating: Field Violet [2, 12]: 30
- Plant response rating: Field Violet [2, 13]: 70
- Plant response rating: Field Violet [2, 14]: 80
- Plant response rating, Field Violet [2, 15]: 0
- Plant response rating, Field Violet [2, 16]: 0
- Plant response rating, Field Violet [2, 17]: 30
- Plant response rating, Field Violet [2, 18]: 80
- Plant response rating, Field Violet [2, 19]: 90
- Plant response rating, Field Violet [2, 20]: 100
- Plant response rating: Bluegrass [3, 11]: 20
- Plant response rating: Bluegrass [3, 12]: 40
- Plant response rating: Bluegrass [3, 13]: 60
- Plant response rating: Bluegrass [3, 14]: 70
- Plant response rating, Bluegrass [3, 15]: 10
- Plant response rating, Bluegrass [3, 16]: 0
- Plant response rating, Bluegrass [3, 17]: 20
- Plant response rating, Bluegrass [3, 18]: 20
- Plant response rating, Bluegrass [3, 19]: 30
- Plant response rating, Bluegrass [3, 20]: 100
- Plant response rating: Russian Thistle [4, 11]: 95
- Plant response rating: Russian Thistle [4, 12]: 100
- Plant response rating: Russian Thistle [4, 13]: 100
- Plant response rating: Russian Thistle [4, 14]: 100
- Plant response rating, Russian Thistle [4, 15]: 90
- Plant response rating, Russian Thistle [4, 16]: 0
- Plant response rating, Russian Thistle [4, 17]: 35
- Plant response rating, Russian Thistle [4, 18]: 40
- Plant response rating, Russian Thistle [4, 20]: 90
- Plant response rating, Goosegrass [5, 11]: 5
- Plant response rating, Goosegrass [5, 12]: 5
- Plant response rating, Goosegrass [5, 13]: 10
- Plant response rating, Goosegrass [5, 21]: 10
- Plant response rating, Foxtail, Green [6, 11]: 30
- Plant response rating, Foxtail, Green [6, 12]: 98
- Plant response rating, Foxtail, Green [6, 13]: 98
- Plant response rating, Foxtail, Green [6, 22]: 100
- Plant response rating, Foxtail, Green [6, 23]: 100
- Plant response rating, Foxtail, Green [6, 24]: 100
- Plant response rating, Foxtail, Green [6, 25]: 100
- Plant response rating: Wheat, Winter [7, 11]: 10
- Plant response rating: Wheat, Winter [7, 12]: 15
- Plant response rating: Wheat, Winter [7, 13]: 20
- Plant response rating: Wheat, Winter [7, 14]: 25
- Plant response rating, Wheat, Winter [7, 15]: 5
- Plant response rating, Wheat, Winter [7, 16]: 0
- Plant response rating, Wheat, Winter [7, 17]: 0
- Plant response rating, Wheat, Winter [7, 18]: 0
- Plant response rating, Wheat, Winter [7, 19]: 0
- Plant response rating, Wheat, Winter [7, 20]: 0
- pest or weed control at 62 g/ha [8, 26]: 90%
- pest or weed control at 125 g/ha [8, 26]: 95%
- pest or weed control at 250 g/ha [8, 26]: 95%
- pest or weed control at 31 g/ha ([8]; Flood): 80%

Compound: Cc1nn(-c2ccc(F)cc2)nc1Oc1ccnc(C(F)(F)F)c1 [Compound 129, 4-[[2-(4-fluorophenyl)-5-methyl-2H-1,2,3-triazol-4-yl]oxy]-2-(trifluoromethyl)pyridine]
- Plant response rating, Barley ([1]; 31 g ai/ha, scale 0 to 100 (0 no effect, 100 complete control)): 30
- Plant response rating, Barley [1, 9]: 35
- Plant response rating, Barley [1, 10]: 45
- Plant response rating, Barley ([1]; 250 g ai/ha, scale 0 to 100): 50
- Plant response rating: Field Violet [2, 11]: 100
- Plant response rating: Field Violet [2, 12]: 100
- Plant response rating: Field Violet [2, 13]: 100
- Plant response rating: Field Violet [2, 14]: 80
- Plant response rating, Field Violet [2, 15]: 40
- Plant response rating, Field Violet [2, 16]: 100
- Plant response rating, Field Violet [2, 17]: 100
- Plant response rating, Field Violet [2, 18]: 100
- Plant response rating, Field Violet [2, 19]: 100
- Plant response rating, Field Violet [2, 20]: 100
- Plant response rating: Bluegrass [3, 11]: 10
- Plant response rating: Bluegrass [3, 12]: 20
- Plant response rating: Bluegrass [3, 13]: 60
- Plant response rating: Bluegrass [3, 14]: 70
- Plant response rating, Bluegrass [3, 15]: 10
- Plant response rating, Bluegrass [3, 16]: 0
- Plant response rating, Bluegrass [3, 17]: 0
- Plant response rating, Bluegrass [3, 18]: 85
- Plant response rating, Bluegrass [3, 19]: 100
- Plant response rating, Bluegrass [3, 20]: 100
- Plant response rating: Russian Thistle [4, 11]: 98
- Plant response rating: Russian Thistle [4, 12]: 100
- Plant response rating: Russian Thistle [4, 13]: 100
- Plant response rating: Russian Thistle [4, 14]: 100
- Plant response rating, Russian Thistle [4, 15]: 98
- Plant response rating, Russian Thistle [4, 16]: 80
- Plant response rating, Russian Thistle [4, 17]: 100
- Plant response rating, Russian Thistle [4, 18]: 100
- Plant response rating, Russian Thistle [4, 19]: 100
- Plant response rating, Russian Thistle [4, 20]: 100
- Plant response rating, Goosegrass [5, 11]: 15
- Plant response rating, Goosegrass [5, 12]: 25
- Plant response rating, Goosegrass [5, 13]: 30
- Plant response rating, Goosegrass [5, 21]: 55
- Plant response rating, Goosegrass [5, 22]: 98
- Plant response rating, Goosegrass [5, 23]: 98
- Plant response rating, Goosegrass [5, 24]: 98
- Plant response rating, Goosegrass [5, 25]: 98
- Plant response rating, Foxtail, Green [6, 11]: 85
- Plant response rating, Foxtail, Green [6, 12]: 95
- Plant response rating, Foxtail, Green [6, 13]: 95
- Plant response rating, Foxtail, Green [6, 21]: 95
- Plant response rating, Foxtail, Green [6, 22]: 90
- Plant response rating, Foxtail, Green [6, 23]: 90
- Plant response rating, Foxtail, Green [6, 24]: 90
- Plant response rating, Foxtail, Green [6, 25]: 90
- Plant response rating: Wheat, Winter [7, 11]: 5
- Plant response rating: Wheat, Winter [7, 12]: 10
- Plant response rating: Wheat, Winter [7, 13]: 20
- Plant response rating: Wheat, Winter [7, 14]: 20
- Plant response rating, Wheat, Winter [7, 15]: 5
- Plant response rating, Wheat, Winter [7, 16]: 0
- Plant response rating, Wheat, Winter [7, 17]: 0
- Plant response rating, Wheat, Winter [7, 18]: 0
- Plant response rating, Wheat, Winter [7, 19]: 5
- Plant response rating, Wheat, Winter [7, 20]: 10
- pest or weed control at 125 g/ha [8, 26]: 85%
- pest or weed control at 250 g/ha [8, 26]: 95%
- pest or weed control at 31 g/ha ([8]; Flood): 75%
- pest or weed control at 62 g/ha ([8]; Flood): 75%
